Read-outs that look alike come from different tables or passages of the source. Blank lines part the entries; values can stand above or below the molecule they belong to.
How the values were obtained:
[1] = SAD study pharmacokinetic analysis; assay type: in vivo, human
Method: (§1) Dose escalation to the next dose level was done after evaluation of the safety and the first 24-hour pharmacokinetic results of the previous dose. […] Anticipated exposures at this starting dose were just below the Minimum Anticipated Biological Effect Level (MABEL). Placebo (an in taste and appearance matching oral liquid) was also administered orally on one occasion in the single-ascending dose part and b.i.d. for 7 Days in the MAD part. […] All samples were stored at <-70° C. until analysis. […] For mean value calculations, all values below the limit of quantification (LOQ) were set to zero. […] The non-compartmental pharmacokinetic analysis was performed using Phoenix, Version 6.3 (Pharsight Corporation, Mountain View, Calif., USA). […] The PK parameters were calculated on the basis of the actual blood sampling time points relative to dosing. Selected pharmacokinetic parameters (Cmax, tmax, t1/2, AUClast and AUC0-int) following single-dose administration and selected pharmacokinetic parameters Cmax, tmax, [NT], the accumulation factor (Racc) and time to reach steady state) following multiple dose administration were determined. In urine, the percentage of dose excreted in urine was determined for the single- and multiple-dose administration.

[2] = MAD study pharmacokinetic analysis; assay type: in vivo, human; conditions: for AUCtau (Geomean) / Cmax (Geomean) / tmax* (median) / Racc (accumulation ratio, Geomean): MAD
Method: as §1

[3] = tested on: primary human fibroblasts from patients with Leigh syndrome; assay: Oxidative stress-induced cell death (BSO) assay, Leigh patient fibroblasts; assay type: cell-based
From the text: (§2) To determine the effective concentration of the compounds (the concentrations that protect patient cells against oxidative stress-induced cell death) the applicant established an assay using stressed primary human fibroblasts from patients with Leigh syndrome, MELAS or LHON diseases. Utilising the inherent oxidative stress of fibroblasts from patients with mitochondrial disease, their oxidative burden was further increased by depleting cellular glutathione with an inhibitor of glutathione synthesis, L-buthionine-(S,R)-sulfoximine (BSO). […] Cells were seeded at a density of 3000 cells/well in a 96-well format and incubated with increasing concentrations of compounds in combination with BSO (100 μM, Sigma-aldrich). One day after treatment, the cells were washed twice and stained with a solution of 5 μM calcein-AM (Life technologies C3100MP) during 25 min in 199 medium without phenol red (Life technologies, 11043-023) at room temperature. After 2 washes with PBS (Phosphate buffered saline) the plate was read on a fluorescence plate reader (Fluostar Omega, BMG labtech) and the percentage of cell viability determined as a function of fluorescence intensity.

[4] = tested on: primary human fibroblasts from patients with MELAS; assay: Oxidative stress-induced cell death (BSO) assay, MELAS patient fibroblasts; assay type: cell-based; conditions: fibroblasts derived from MELAS patients, 100 μM BSO; read-out: EC50, protection from oxidative stress-induced cell death
From the text: as §2

[5] = tested on: primary human fibroblasts from patients with LHON; assay: Oxidative stress-induced cell death (BSO) assay, LHON patient fibroblasts; assay type: cell-based; conditions: fibroblasts derived from LHON patients, 100 μM BSO; read-out: EC50, protection from oxidative stress-induced cell death
From the text: as §2

AUC0-inf ratio (fed/fasted), 90% CI ([1]; 100 mg, fed versus fasted): 0.90 (90% Cl 0.57-1.41) | AUC0-inf (Geomean) ([1]; SAD, KH176 10 mg, fasted): 234 ng·h/mL | AUClast (Geomean) ([1]; SAD, KH176 10 mg, fasted): 151 ng·h/mL | Cmax (Geomean) ([1]; SAD, KH176 10 mg, fasted): 14.2 ng/mL | t1/2 (Geomean) ([1]; SAD, KH176 10 mg, fasted): 16.6 h | tmax* (median) ([1]; SAD, KH176 10 mg, fasted): 1.25 h | AUC0-inf (Geomean) ([1]; SAD, KH176 30 mg, fasted): 881 ng·h/mL | AUClast (Geomean) ([1]; SAD, KH176 30 mg, fasted): 547 ng·h/mL | Cmax (Geomean) ([1]; SAD, KH176 30 mg, fasted): 49.4 ng/mL | t1/2 (Geomean) ([1]; SAD, KH176 30 mg, fasted): 17.8 h | tmax* (median) ([1]; SAD, KH176 30 mg, fasted): 1.50 h | AUC0-inf (Geomean) ([1]; SAD, KH176 100 mg, fasted): 2690 ng·h/mL | AUClast (Geomean) ([1]; SAD, KH176 100 mg, fasted): 1810 ng·h/mL | Cmax (Geomean) ([1]; SAD, KH176 100 mg, fasted): 168 ng/mL | t1/2 (Geomean) ([1]; SAD, KH176 100 mg, fasted): 15.4 h | tmax* (median) ([1]; SAD, KH176 100 mg, fasted): 1.25 h | AUC0-inf (Geomean) ([1]; SAD, KH176 100 mg, fed): 2410 ng·h/mL | AUClast (Geomean) ([1]; SAD, KH176 100 mg, fed): 1590 ng·h/mL | Cmax (Geomean) ([1]; SAD, KH176 100 mg, fed): 117 ng/mL | t1/2 (Geomean) ([1]; SAD, KH176 100 mg, fed): 14.9 h | tmax* (median) ([1]; SAD, KH176 100 mg, fed): 2.50 h | AUC0-inf (Geomean) ([1]; SAD, KH176 300 mg, fasted): 6890 ng·h/mL | AUClast (Geomean) ([1]; SAD, KH176 300 mg, fasted): 4830 ng·h/mL | Cmax (Geomean) ([1]; SAD, KH176 300 mg, fasted): 497 ng/mL | t1/2 (Geomean) ([1]; SAD, KH176 300 mg, fasted): 14.3 h | tmax* (median) ([1]; SAD, KH176 300 mg, fasted): 1.24 h | AUC0-inf (Geomean) ([1]; SAD, KH176 800 mg, fasted): 18700 ng·h/mL | AUClast (Geomean) ([1]; SAD, KH176 800 mg, fasted): 11700 ng·h/mL | Cmax (Geomean) ([1]; SAD, KH176 800 mg, fasted): 1100 ng/mL | t1/2 (Geomean) ([1]; SAD, KH176 800 mg, fasted): 17.2 h | tmax* (median) ([1]; SAD, KH176 800 mg, fasted): 1.50 h | AUC0-inf (Geomean) ([1]; SAD, KH176 2000 mg, fasted): 41300 ng·h/mL | AUClast (Geomean) ([1]; SAD, KH176 2000 mg, fasted): 23900 ng·h/mL | Cmax (Geomean) ([1]; SAD, KH176 2000 mg, fasted): 1780 ng/mL | t1/2 (Geomean) ([1]; SAD, KH176 2000 mg, fasted): 18.9 h | tmax* (median) ([1]; SAD, KH176 2000 mg, fasted): 1.75 h | t1/2 ([1]; SAD, approximate, across dose groups): approximately 16 h | median tmax ([1]; fasted condition (100 mg)): approximately 1 h | median tmax ([1]; fed condition (100 mg, high calorie/high fat breakfast)): 2.5 h | AUCtau (Geomean) ([2]; KH176 100 mg b.i.d, Day 1): 702 ng·h/mL | Cmax (Geomean) ([2]; KH176 100 mg b.i.d, Day 1): 99.4 ng/mL | tmax* (median) ([2]; KH176 100 mg b.i.d, Day 1): 1.50 h | AUCtau (Geomean) ([2]; KH176 100 mg b.i.d, Day 7): 1310 ng·h/mL | Cmax (Geomean) ([2]; KH176 100 mg b.i.d, Day 7): 152 ng/mL | Racc (accumulation ratio, Geomean) ([2]; KH176 100 mg b.i.d, Day 7): 1.86 | tmax* (median) ([2]; KH176 100 mg b.i.d, Day 7): 1.00 h | AUCtau (Geomean) ([2]; KH176 200 mg b.i.d, Day 1): 1680 ng·h/mL | Cmax (Geomean) ([2]; KH176 200 mg b.i.d, Day 1): 251 ng/mL | tmax* (median) ([2]; KH176 200 mg b.i.d, Day 1): 1.75 h | AUCtau (Geomean) ([2]; KH176 200 mg b.i.d, Day 7): 2220 ng·h/mL | Cmax (Geomean) ([2]; KH176 200 mg b.i.d, Day 7): 250 ng/mL | Racc (accumulation ratio, Geomean) ([2]; KH176 200 mg b.i.d, Day 7): 1.32 | tmax* (median) ([2]; KH176 200 mg b.i.d, Day 7): 1.50 h | AUCtau (Geomean) ([2]; KH176 400 mg b.i.d, Day 1): 3600 ng·h/mL | Cmax (Geomean) ([2]; KH176 400 mg b.i.d, Day 1): 550 ng/mL | tmax* (median) ([2]; KH176 400 mg b.i.d, Day 1): 1.25 h | AUCtau (Geomean) ([2]; KH176 400 mg b.i.d, Day 7): 4270 ng·h/mL | Cmax (Geomean) ([2]; KH176 400 mg b.i.d, Day 7): 450 ng/mL | Racc (accumulation ratio, Geomean) ([2]; KH176 400 mg b.i.d, Day 7): 1.19 | tmax* (median) ([2]; KH176 400 mg b.i.d, Day 7): 1.50 h | AUCtau (one dosing interval, 12 hours), range ([2]; steady state, 100 mg BID): 851 to 1570 ng·h/mL | average concentrations, range ([2]; steady state, 100 mg BID): 70.9 to 130.8 ng/mL | maximum concentration, range ([2]; steady state, 100 mg BID, healthy subjects): 89.4 to 204 ng/mL
Compound: CC1=C(C)C(=O)C(CC[C@](C)(O)C(=O)N[C@@H]2CCCNC2)=C(C)C1=O [KH176m]
EC50 ([3]; fibroblasts derived from Leigh patients, 100 μM BSO, one day, calcein-AM viability, read-out: EC50 (half maximum effective concentration), protection from oxidative stress-induced cell death): 16 nM | EC50 expressed in ng/mL ([3]; in vitro fibroblast assays (Redox assay), fibroblast type not given, values match Leigh): around 5.8 ng/mL | EC50 ([3]; in vitro fibroblast assays (Redox assay), fibroblast type not given, values match Leigh, read-out: EC50): 16 nM | EC50 [4]: 14 nM | EC50 [5]: 4 nM

Compound: COC1=C(OC)C(=O)C(CCCCCCCCCCO)=C(C)C1=O [Idebenone, reference compound]
EC50 ([3]; Homo sapiens, in vitro fibroblast assays (Redox assay), fibroblast type not given, values match Leigh, read-out: EC50): 1470 nM

From patent publication US11285130B2, “Treatment of mitochondrial diseases” (Khondrion IP B.V., priority 2017, dated 2022)
